Data published in US5211944A, “Proanthocyanidin polymers having antiviral activity and methods of obtaining same” (Shaman Pharmaceuticals, Inc., priority 1991, dated 1993).
In brackets after ≈: the same amount, converted by molar mass. Several values for one entry are separate records, joined by “and”; a condition that tells them apart may be missing. Identical values can stand only once. Like-named read-outs stand apart in the source and are kept apart here.

Tests used:
[1] = tested on: RNA-directed DNA polymerase; conditions: Sethi, 1977; cited from earlier work
[2] = Persinos et al., 1979; cited from earlier work
Influenza viruses = conditions: cited from earlier work
Influenza A/NWS/33 virus [3] = conditions: i.p. once daily for 8 days
PIV-1 = test: In vitro antiviral assay, inhibition of CPE, PIV-1
Adenovirus 7 = test: In vitro antiviral assay, inhibition of CPE, adenovirus 7; assay type: cell-based; conditions: Human mastadenovirus B, HEp-2, HEp2 cells, Table 1 experiments 2-3, read-out: ED50 (the source's name)
Influenza A = test: microbe, parasite or virus in culture; assay type: cell-based; conditions: for EC50: Influenza A virus
Measles = test: In vitro antiviral assay, inhibition of CPE, measles; assay type: cell-based, Measles virus; conditions: Measles morbillivirus, HEp-2, HEp2 cells, Table 1 experiments 1-2, read-out: ED50 (the source's name)
Parainfluenza virus 3 = test: microbe, parasite or virus in culture; assay type: cell-based
Influenza B = test: microbe, parasite or virus in culture; assay type: cell-based; conditions: for ED50: FLU-B; for EC50: Influenza B virus
RSV A2 [4] = test: RSV infection of cotton rats, intraperitoneal dosing, lung titer; assay type: in vivo, Hispid Cotton Rats; conditions: for % kill: versus control; for ED50: 3-day intraperitoneal dosing
Method: Control animals received an equal volume of distilled water. […] All animals were killed on day 5. Lungs were removed and washed via transpleural lavage. The fluid collected was assessed for RSV titer in a microtiter assay using HEp2 cells.
(§1) Tissue control wells contained medium, but no virus. […] Virus control wells were observed daily. […] In addition to visual CPE, inhibition of syncytia formation is used to confirm activity against RSV. Lung RSV titer logm was calculated as described by Dubovi et al., 1983; 1984.

Adenovirus 5 = test: In vitro antiviral assay, inhibition of CPE, adenovirus 5; assay type: cell-based; conditions: Human mastadenovirus C, HEp-2, HEp2 cells, Table 1 experiment 2, read-out: ED50 (the source's name)
[5] = Table 16; 75 mg/kg/day i.p. bid × 5; female
[6] = tested on: Respiratory syncytial virus (RSV); test: microbe, parasite or virus in culture; assay type: cell-based; conditions: human respiratory syncytial virus
RSV A2 [7] = test: RSV infection of cotton rats, oral dosing, lung titer; assay type: in vivo, Hispid Cotton Rats; conditions: for ED50: human respiratory syncytial virus, 72 h, 3-day oral dosing
Method: as §1
All animals were killed on day 5 and lung tissues were collected. Lungs were removed and washed via transpleural lavage. The fluid collected was assessed for RSV titer in a microtiter assay using HEp2 cells as described above.

RSV or influenza virus = conditions: cited from earlier work
Influenza A/NWS/33 virus [8] = conditions: for influenza inhibition (words): 75 mg/kg/day i.p.
[9] = 75 mg/kg/day i.p. bid × 5, days 2, 4, 6, 8
[10] = 75 mg/kg/day i.p. bid × 5 from 4 hr post-virus, female

## COc1ccc2c(=O)oc3c(OC)cc(CCN(C)C)c4c(=O)oc1c2c34 [taspine]
[1]
  RNA-directed DNA polymerase activity: inhibit RNA-directed DNA polymerase activity
[2]
  anti-inflammatory activity: exhibits anti-inflammatory activity

## Cl.NC12CC3CC(CC(C3)C1)C2 [Amantadine, 1-Adamantanamine HCL]
Influenza viruses
  central nervous system side effects: causes some central nervous system side effects
  shortening of fever duration and respiratory symptoms: about 50%
Influenza A/NWS/33 virus [3]
  inhibition of influenza A infection (overall words): ineffective

## NC(=O)c1ncn([C@@H]2O[C@H](CO)[C@@H](O)[C@H]2O)n1 [Ribavirin, 1-β-D-ribofuranosyl-1,2,4-triazole 3-carboxamide]
PIV-1; HEp-2, read-out: ED50, MEAN, PIV-1, mean
  EC50: 10.7 µg/mL (≈ 43.8 µM)
PIV-1; HEp-2, read-out: ED50, PIV-1
  EC50: 12 µg/mL (≈ 49.1 µM)
PIV-1; PIV-1
  ED50: 8.0 µg/mL (≈ 32.8 µM)
Adenovirus 7
  EC50: > 1000 µg/mL
Influenza A; HEp-2, FLU-A, A-Leningrad, read-out: ED50 (the source's name)
  EC50: 6 µg/mL (≈ 24.6 µM)
Influenza A; HEp-2, FLU-A, A-Shanghai, read-out: ED50 (the source's name)
  EC50: 6 µg/mL (≈ 24.6 µM)
Influenza A; HEp-2, FLU-A, B-Japan, read-out: ED50 (the source's name)
  EC50: 1.6 µg/mL (≈ 6.55 µM)
Influenza A; HEp-2, FLU-A, B-NWS/33, read-out: ED50 (the source's name)
  EC50: 1 µg/mL (≈ 4.09 µM)
Influenza A; HEp-2, FLU-A, B-Portchalm, read-out: ED50 (the source's name)
  EC50: 1 µg/mL (≈ 4.09 µM)
Influenza A; HEp-2, FLU-A, mean of all strains, read-out: ED50, MEAN
  EC50: 8.2 µg/mL (≈ 33.6 µM)
Influenza A; HEp-2, Influenza A, HEp2 cells, Table 1 experiments 1-3, read-out: ED50 (the source's name)
  EC50: 15 µg/mL (≈ 61.4 µM)
Influenza A; Influenza A, HEp2 cells, Table 1 experiments 1-3
  ED50: 14.3 µg/mL and 14 µg/mL
Measles
  EC50: 31.3 µg/mL (≈ 128 µM)
Parainfluenza virus 3; HEp-2, PIV-3, mean, read-out: ED50, MEAN
  EC50: 15.4 µg/mL (≈ 63.1 µM)
Parainfluenza virus 3; HEp-2, Parainfluenza virus (3), HEp2 cells, Table 1 experiments 1-3, read-out: ED50 (the source's name)
  EC50: 15.6 µg/mL (≈ 63.9 µM)
Parainfluenza virus 3; PIV-3
  ED50: 16.0 µg/mL (≈ 65.5 µM)
Parainfluenza virus 3; Parainfluenza virus (3), HEp2 cells, Table 1 experiments 1-3
  ED50: 15.7 µg/mL and 12 µg/mL
In vitro; ID50, FLU-A, B-Japan experiment
  CC50: 78 µg/mL (≈ 319 µM)
In vitro; ID50, FLU-A, B-NWS/33 experiment
  CC50: 100 µg/mL (≈ 409 µM)
In vitro; ID50, FLU-A, B-Portchalm experiment
  CC50: 68 µg/mL (≈ 278 µM)
In vitro; ID50, FLU-B, B-HongKong experiment
  CC50: 80 µg/mL (≈ 328 µM)
In vitro; ID50, MEAN, FLU-A experiments, mean
  CC50: 750 µg/mL (≈ 3070 µM)
In vitro; ID50, MEAN, FLU-B experiments, mean
  CC50: 847 µg/mL (≈ 3470 µM)
In vitro; ID50, MEAN, RSV experiments, mean
  CC50: 946 µg/mL (≈ 3870 µM)
In vitro; ID50, PIV-1 experiment
  CC50: 1000 µg/mL (≈ 4090 µM)
In vitro; ID50, PIV-3 experiment
  CC50: 1000 µg/mL (≈ 4090 µM)
In vitro; ID50, RSV A-Tracy experiment
  CC50: 1000 µg/mL (≈ 4090 µM)
In vitro; ID50, RSV B-18537 experiment
  CC50: 1000 µg/mL (≈ 4090 µM)
In vitro; ID50, RSV B-46791 experiment
  CC50: 1000 µg/mL (≈ 4090 µM)
In vitro; ID50, RSV B-47063 experiment
  CC50: 1000 µg/mL (≈ 4090 µM)
Influenza B; B-USSR
  ED50: 7.8 µg/mL (≈ 31.9 µM)
Influenza B; B-Yamagata
  ED50: 8.0 µg/mL (≈ 32.8 µM)
Influenza B; HEp-2, FLU-B, B-HongKong, read-out: ED50 (the source's name)
  EC50: 1 µg/mL (≈ 4.09 µM)
Influenza B; HEp-2, FLU-B, B-USSR, read-out: ED50 (the source's name)
  EC50: 4 µg/mL (≈ 16.4 µM)
Influenza B; HEp-2, FLU-B, B-Yamagata, read-out: ED50 (the source's name)
  EC50: 6 µg/mL (≈ 24.6 µM)
Influenza B; HEp-2, FLU-B, mean of all strains, read-out: ED50, MEAN
  EC50: 5.8 µg/mL (≈ 23.8 µM)
Influenza B; HEp-2, Influenza B, HEp2 cells, Table 1 experiments 1-2, read-out: ED50 (the source's name)
  EC50: 18 µg/mL (≈ 73.7 µM)
RSV A2 [4]; 10 mg/kg i.p.
  Lung titer (RSV titer log 10/g lung, Mean ± S.D.): 4.5 ± 0.2 log 10 /g lung
  Lung titer (antilog, in parentheses): 31,622
  % kill: 0%
RSV A2 [4]; 30 mg/kg i.p.
  Lung titer (RSV titer log 10/g lung, Mean ± S.D.): 4.0 ± 0.3 log 10 /g lung
  Lung titer (antilog, in parentheses): 10,000
  % kill: 68.4%
RSV A2 [4]; 40 mg/kg i.p.
  reduction in lung titers: 50%
RSV A2 [4]; 90 mg/kg i.p.
  Lung titer (RSV titer log 10/g lung, Mean ± S.D.): 2.8 ± 0.3 log 10 /g lung
  Lung titer (antilog, in parentheses): 631
  % kill: 98%
RSV A2 [4]; individual experiments
  ED50: 30 mg/kg and 50 mg/kg
RSV A2 [4]; human respiratory syncytial virus, ip, 72 h, individual experiments, read-out: ED50
  ED50: 40 mg/kg
RSV A2 [4]; human respiratory syncytial virus, ip, 72 h, mean, read-out: ED50, Mean ± S.E.M.
  ED50: 40 ± 6 mg/kg
Adenovirus 5
  EC50: > 1000 µg/mL
[5]
  Host Wt. Change: 0.6 g
  Toxicity controls Surv/Total: 5/5
[6]; HEp-2, RSV B-46791, read-out: ED50 (the source's name)
  EC50: 8 µg/mL (≈ 32.8 µM)
[6]; HEp-2, RSV B-47063, read-out: ED50 (the source's name)
  EC50: 12 µg/mL (≈ 49.1 µM)
[6]; HEp-2, RSV, mean of all strains, read-out: ED50, MEAN
  EC50: 11.9 µg/mL (≈ 48.7 µM)
RSV A2 [7]; 40 mg/kg oral
  Lung titer (RSV titer log 10/g lung, Mean ± S.D.): 3.30 ± 0.5 log 10 /g lung
  Lung titer (antilog, in parentheses): 1,995
  reduction in lung titers: > 90%
RSV A2 [7]; 40 mg/kg oral, versus control
  % kill: 80%
RSV A2 [7]; individual experiments, read-out: ED50
  ED50: > 90 mg/kg
RSV A2 [7]; mean, read-out: ED50, Mean ± SEM
  ED50: > 90 mg/kg
RSV or influenza virus; acute respiratory infections
  severity of illness and amount of virus shed: reduce the severity of illness and amount of virus shed
RSV or influenza virus; in animals
  teratogenicity: teratogenic in animals
Influenza A/NWS/33 virus [8]
  influenza inhibition (words): inhibitory to the virus infection
Influenza A/NWS/33 virus [8]; 75 mg/kg/day i.p. bid × 5, daily for 10 days
  Mean SaO2 %: 81%
Influenza A/NWS/33 virus [8]; [9]
  Mean Score (lung): 0.3
  Mean Virus Titer (log10): 3.9 log10
Influenza A/NWS/33 virus [8]; [10]
  Infected, Treated Surv/Total: 10/10
  MST: > 21.0 days
Influenza A/NWS/33 virus [8]; 75 mg/kg/day i.p. bid × 5 from 4 hr post-virus, female, listed as ribavirin
  Infected, Treated Surv/Total: All infected, ribavirin-treated mice survived the infection
Influenza A/NWS/33 virus [8]; listed as ribavirin
  influenza inhibition (words): significant influenza inhibition
